Measured values published in patent US20210260010A1, “COMPOSITIONS AND METHODS FOR THE REDUCTION OR TREATMENT OF INFLAMMATION” (AXCELLA HEALTH INC., priority 2018, published 2021).

Assays:
Type in all cases: cell-based
MCP-1 = MCP-1 chemokine secretion by TNFα-stimulated primary human hepatic stellate cells (ELISA); conditions: for MCP-1 chemokine secretion, per-cell normalized, fold change from plasma amino acid background: primary human hepatic stellate cells, two donors, TNFα 3 ng/mL, 12 hours
Protocol: Primary human hepatic stellate cells were obtained from Samsara Sciences and grown in Complete HSC Medium to […] confluence in T75 or T150 flasks below passage 10 were seeded into 96-well plates and incubated for 6 hours at 37° C., 5% CO2 in a humidified incubator. After 6 hours, plates were removed from the incubator washed with DPBS and pretreated (±single amino acid dropout, ±supplemental amino acid dose; see experiment for medium composition) overnight, ˜14-15 hours. After overnight pretreatment, the medium was removed from the cells, and the same pretreatment medium, now supplemented with 3 ng/mL TNFα was applied. Plates were incubated for 12 hours at 37° C., 5% CO2. After 12 hour stimulus with TNFα, supernatant was removed and frozen at −80° C. in two separate aliquots. Plates were washed and incubated with CCK-8 viability reagent (Dojindo) for 1 hour. Viability was measured on the Synergy plate reader. Immediately, the medium was removed and the plates were fixed for immunofluorescence staining.
Human CCL2/MCP1 and Human IL-6 were measured by ELISA (Human […] DuoSet ELISA, R&D Systems; Human IL-6 DuoSet ELISA, R&D Systems) at ⅕ and 1/20 dilution in 1× Reagent Diluent (Reagent Ancillary Kit 2, R&D Systems). Data were normalized to the specific per well cell density determined by Hoechst stained nuclei count.
Tables 35-38 show per-cell normalized MCP-1 chemokine secretion in primary human hepatic stellate cells from two donors as a fold change from the plasma amino acid background. Statistical significance calculated by one-way ANOVA with Dunnett's multiple comparison test within each treatment group.

IL-6 = experiment: LPS-induced IL-6 secretion in primary human monocyte-derived macrophages (ELISA); conditions: for IL-6 Measurements Mean: LPS 0.15 ng/mL, baseline subtracted; for LPS-induced IL-6 secretion: macrophages, 0.15 ng/mL LPS
Protocol: (§1) Unpurified buffy coats (Research Blood Components) were carefully poured into 50 mL centrifuge tubes and diluted with room temperature Dulbecco's Phosphate Buffered Saline (dPBS) with Calcium and Magnesium (Gibco). Diluted buffy coats were further divided into four total 50 mL centrifuge tubes at 20 mL per tube. Lymphocyte Separation Medium (Corning) was carefully pipetted to the bottom of each centrifuge tube. Mixtures were centrifuged at 850× g for 32 minutes at 20° C. with 0 deceleration and acceleration.
(§2) The PBMC layer was separated from other components after centrifugation and added to new 50 mL centrifuge tube containing 25 mL dPBS. Total volume was brought up to 50 mL with dPBS and centrifuged at 600×g for 10 minutes at 20° C. with acceleration of 9, deceleration of 5. Supernatant was carefully removed from cell pellets. The cell pellets were resuspended using 10 mL dPBS. Total volume was then brought up to 50 mL using dPBS and centrifuged at 450×g for 5 min at 20° C. with acceleration of 9, deceleration of 9. The supernatant removal and cell pellet resuspension was repeated again.
(§3) The supernatant was then carefully removed from cell pellets. Cell pellets were resuspended in 10 mL dPBS without calcium or magnesium and filtered through a 70 uM cell strainer. The total PBMC number was determined using a Cellometer K2 automated cell counter. A total of 5E6 cells were saved for flow cytometric analysis. Remaining cells were centrifuged at 490×g for 5 minutes at 20° C. with acceleration of 9, deceleration of 9.
(§4) CD14+ cells were selected using EasySep™ Human CD14 Positive Selection Kit II ([…] Technologies). Cells were resuspended in cold EasySep™ Buffer ([…] Technologies) at 1×10^8 cells/mL. A total of 100 uL/mL EasySep™ Human CD14 Positive Selection Cocktail II was added to the cell suspension, mixed, and incubated at room temperature for 10 minutes. A total of 100 uL/mL RapidSpheres were added to the mixture and incubated at room temperature for 3 minutes after mixing, then RoboSep buffer was added to bring up the total volume to 10 mL. The mixture in a 15 mL tube was placed in magnet and incubated at room temperature for 3 minutes. Supernatant was discarded and 10 mL fresh EasySep™ buffer was added to 15 mL tube. The addition of RoboSep buffer, mixing, and discarding of supernatant was repeated two more times.
(§5) Negative and positive fractions were centrifuged at 490×g for 5 minutes at 20° C. with acceleration of 9, deceleration of 9, and resuspended in DMEM (Gibco) and 10% Heat Inactivated Fetal Bovine Serum (Atlanta Bio) and Penicillin/Streptomycin. Cells were counted and centrifuged again at 490× g for 5 minutes at 20° C. with acceleration of 9, deceleration of 9. After centrifugation, cell were resuspended in DMEM (Gibco) and 10% Heat Inactivated Fetal Bovine Serum (Atlanta Bio) and Penicillin/Streptomycin containing 500 U/mL […] and plated at 1-2×10^6 cells/mL on 10 cm tissue culture plates. Cells were kept in 37° C., 5% CO2 in between feedings/harvest.
(§6) Cells were fed every 3-4 days by removing media and unattached cells, centrifuging at 490× g for 5 minutes at 20° C. with acceleration of 9, deceleration of 9, and resuspending in fresh DMEM (Gibco) and 10% Heat Inactivated Fetal Bovine Serum (Atlanta Bio) and Penicillin/Streptomycin containing GM-CSF. Resuspended cells were seeded back onto 10 cm tissue culture plates and incubated at 37° C., 5% CO2. Differentiated macrophages were used for subsequent experiments.
(§7) Primary human PMBC derived macrophages were seeded on day 0 at 3.0E4 cells per well in 96-well microplates (ThermoFisher) in Dulbecco's Modified Eagle Medium (DMEM) (Gibco) supplemented with penicillin-streptomycin (Hyclone) and 10% heat inactivated fetal bovine serum (HI-FBS) (Atlanta Bio) and incubated overnight at 37° C., 5% CO2. On day 1, cells were washed once with 150 uL per well DPBS (Gibco) and treated with 75 uL of: • a. […]

TNFα = experiment: LPS-induced TNFα secretion in primary human monocyte-derived macrophages (ELISA); set-up: TNFa Measurements Mean: unit not given here; conditions: for TNFa Measurements Mean: Donor 1, LPS 0.15 ng/mL; for TNFa Measurements Mean / Donor 2 TNFa Measurements Mean / Donor 3 TNFa Measurements Mean: baseline subtracted; for LPS-induced TNFα secretion: macrophages, 0.15 ng/mL LPS
Protocol: as §1, §2, §3, §4, §5, §6, §7

[1] = Donor 2, Conc. 153 μM (baseline)
[2] = Donor 2, Conc. 749 μM (baseline)
[3] = Donor 3, Conc. 749 μM (baseline)

CC(C)C[C@H](N)C(=O)O [Leucine, L-Leucine]
Fold Change MCP1 Secretion Normalized Per Cell (MCP-1; donor 3, Conc. 153 μM (plasma background, reference)): 1.0000 | Fold Change MCP1 Secretion Normalized Per Cell (MCP-1; donor 3, Conc. 3054 μM): 1.1479 | Fold Change MCP1 Secretion Normalized Per Cell (MCP-1; donor 3, Conc. 7635 μM): 1.3054 | Fold Change MCP1 Secretion Normalized Per Cell (MCP-1; donor 3, Conc. 15270 μM): 1.1808 | Fold Change MCP1 Secretion Normalized Per Cell (MCP-1; donor 4, Conc. 153 μM (plasma background, reference)): 1.0000 | MCP-1 chemokine secretion, per-cell normalized, fold change from plasma amino acid background (MCP-1): no significant impact | IL-6 Measurements Mean (IL-6; Donor 1, Conc. 153 μM (baseline)): 0 | IL-6 Measurements Mean (IL-6; Donor 1, Conc. 3054 μM): 244.9743 | IL-6 Measurements Mean (IL-6; Donor 1, Conc. 7635 μM): −69.9873 | IL-6 Measurements Mean (IL-6; Donor 1, Conc. 15270 μM): 84.46 | IL-6 Measurements Mean (IL-6; [1]): 7.11E−15 | IL-6 Measurements Mean (IL-6; Donor 2, Conc. 3054 μM): 29.61 | IL-6 Measurements Mean (IL-6; Donor 2, Conc. 7635 μM): 30.46 | IL-6 Measurements Mean (IL-6; Donor 2, Conc. 15270 μM): 47.6 | LPS-induced IL-6 secretion (IL-6; Donor 2): increased | TNFa Measurements Mean (TNFα; Conc. 153 μM (baseline)): 0 | TNFa Measurements Mean (TNFα; Conc. 3054 μM): 42.04 | TNFa Measurements Mean (TNFα; Conc. 7635 μM): −23.04 | TNFa Measurements Mean (TNFα; Conc. 15270 μM): −46.21 | Donor 2 TNFa Measurements Mean (TNFα; [1]): 0 | Donor 2 TNFa Measurements Mean (TNFα; Donor 2, Conc. 3054 μM): 31.74 | Donor 2 TNFa Measurements Mean (TNFα; Donor 2, Conc. 7635 μM): 41.98 | Donor 2 TNFa Measurements Mean (TNFα; Donor 2, Conc. 15270 μM): 46.69 | LPS-induced TNFα secretion (TNFα; Donor 2): increased

NC(=O)CC[C@H](N)C(=O)O [Glutamine, L-Glutamine]
Fold Change MCP1 Secretion Normalized Per Cell (MCP-1; donor 3, Conc. 562 μM (plasma background, reference)): 1.0000 | Fold Change MCP1 Secretion Normalized Per Cell (MCP-1; donor 3, Conc. 749 μM): 0.7048 | Fold Change MCP1 Secretion Normalized Per Cell (MCP-1; donor 3, Conc. 3747 μM): 0.6036 | Fold Change MCP1 Secretion Normalized Per Cell (MCP-1; donor 3, Conc. 11242 μM): 0.6106 | Fold Change MCP1 Secretion Normalized Per Cell (MCP-1; donor 3, Conc. 22484 μM): 0.6212 | Fold Change MCP1 Secretion Normalized Per Cell (MCP-1; donor 4, Conc. 562 μM (plasma background, reference)): 1.0000 | MCP-1 chemokine secretion, per-cell normalized, fold change from plasma amino acid background (MCP-1): reduced MCP1 secretion in both donors but was only statistically significant in one of two donors | IL-6 Measurements Mean (IL-6; Donor 1, Conc. 749 μM (baseline)): 0 | IL-6 Measurements Mean (IL-6; Donor 1, Conc. 3747 μM): 291.5443 | IL-6 Measurements Mean (IL-6; Donor 1, Conc. 11242 μM): 397.1745 | IL-6 Measurements Mean (IL-6; Donor 1, Conc. 22484 μM): 440.1437 | IL-6 Measurements Mean (IL-6; [2]): 2.37E−15 | IL-6 Measurements Mean (IL-6; Donor 2, Conc. 3747 μM): 22.52 | IL-6 Measurements Mean (IL-6; Donor 2, Conc. 11242 μM): 63.31 | IL-6 Measurements Mean (IL-6; Donor 2, Conc. 22484 μM): 34.39 | IL-6 Measurements Mean (IL-6; [3]): 3.79E−14 | IL-6 Measurements Mean (IL-6; Donor 3, Conc. 3747 μM): 25.35 | IL-6 Measurements Mean (IL-6; Donor 3, Conc. 11242 μM): 98.4903 | IL-6 Measurements Mean (IL-6; Donor 3, Conc. 22484 μM): 108.5158 | LPS-induced IL-6 secretion (IL-6; Donor 1): increased | LPS-induced IL-6 secretion (IL-6; Donor 2): increased | LPS-induced IL-6 secretion (IL-6; Donor 3): significantly increased | TNFa Measurements Mean (TNFα; Conc. 749 μM (baseline)): 0 | TNFa Measurements Mean (TNFα; Conc. 3747 μM): −45.7 | TNFa Measurements Mean (TNFα; Conc. 11242 μM): −65.24 | TNFa Measurements Mean (TNFα; Conc. 22484 μM): −103.07 | Donor 2 TNFa Measurements Mean (TNFα; [2]): −9.5E−15 | Donor 2 TNFa Measurements Mean (TNFα; Donor 2, Conc. 3747 μM): 9.338 | Donor 2 TNFa Measurements Mean (TNFα; Donor 2, Conc. 11242 μM): 20.04 | Donor 2 TNFa Measurements Mean (TNFα; Donor 2, Conc. 22484 μM): 11.5 | Donor 3 TNFa Measurements Mean (TNFα; [3]): 0 | Donor 3 TNFa Measurements Mean (TNFα; Donor 3, Conc. 3747 μM): 1.936 | Donor 3 TNFa Measurements Mean (TNFα; Donor 3, Conc. 11242 μM): 18 | Donor 3 TNFa Measurements Mean (TNFα; Donor 3, Conc. 22484 μM): 29.14 | LPS-induced TNFα secretion (TNFα; Donor 2): increased | LPS-induced TNFα secretion (TNFα; Donor 3): increased
